# Patent publication US12240862B2, “Inhibitors of peptidylarginine deiminases” (Gilead Sciences, Inc., priority 2020, dated 2025)
# Molecular target: T1, human PAD4 (Homo sapiens, UniProt Q9UM07)
# T1 construct: human PAD4 (NM_012387), A2P663, was PCR amplified; His-SUMO (N, cleaved yes); made in house; host or cells: E. coli BL21(DE3)
# Experiment: In vitro PAD4 BAEE biochemical assay
# Conditions: human PAD4, BAEE substrate; 5 nM PAD4, 2 mM calcium chloride, 3 mM BAEE; geometric mean of multiple experiments
# In short: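 Ammonia release from BAEE deimination monitored by o-phthalaldehyde amine coupling (1 h, 25 °C) after EDTA stop. Final conditions: 5 nM tag-free recombinant human PAD4 (E. coli), 2 mM CaCl2, 3 mM BAEE, pH 7.6 MOPS with DTT; 30 min compound preincubation, then 2 h reaction at 25 °C.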
# T1 sequence (Q9UM07 2-663): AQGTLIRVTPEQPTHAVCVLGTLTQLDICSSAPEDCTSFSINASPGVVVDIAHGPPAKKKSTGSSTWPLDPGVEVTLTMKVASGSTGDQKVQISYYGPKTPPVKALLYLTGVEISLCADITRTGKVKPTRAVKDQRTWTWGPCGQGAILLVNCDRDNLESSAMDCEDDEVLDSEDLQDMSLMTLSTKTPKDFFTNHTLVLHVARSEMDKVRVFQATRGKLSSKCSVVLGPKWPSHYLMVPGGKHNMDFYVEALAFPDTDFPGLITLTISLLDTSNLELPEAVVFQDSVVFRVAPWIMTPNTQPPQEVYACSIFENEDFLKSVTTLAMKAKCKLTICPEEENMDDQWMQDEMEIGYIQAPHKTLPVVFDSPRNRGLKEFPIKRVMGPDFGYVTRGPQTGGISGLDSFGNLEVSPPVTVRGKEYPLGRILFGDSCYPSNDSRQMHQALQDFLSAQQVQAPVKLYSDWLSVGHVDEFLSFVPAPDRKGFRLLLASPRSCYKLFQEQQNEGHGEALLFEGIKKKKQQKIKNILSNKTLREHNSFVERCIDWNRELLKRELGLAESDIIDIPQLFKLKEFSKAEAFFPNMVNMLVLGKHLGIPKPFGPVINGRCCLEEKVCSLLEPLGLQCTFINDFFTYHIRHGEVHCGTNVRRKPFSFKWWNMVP
row,SMILES,IC50 [µM]
1,"COc1cc(C(=O)N2CCC3(CCCCN3)C2)cc2nc(-c3cc4ccc([C@@H](C)NC(=O)C56CC(F)(C5)C6)nc4n3CC3CC3)c(C)n12 (stereo partly drawn) [Example 4, ~{N}-[(1~{R})-1-[1-(cyclopropylmethyl)-2-[7-(2,6-diazaspiro [4.5]decane-2-carbonyl)-5-methoxy-3-methylimidazo[1,2-a]pyridin-2-yl]pyrrolo[2,3-b]pyridin-6-yl]ethyl]-3-fluorobicyclo[1.1.1] pentane-1-carboxamide]",23.4
2,"CCc1ccc2cc(-c3nc4cc(C(=O)N5[C@H]6CC[C@@H]5[C@H](N)C6)cc(OC)n4c3C3CCC3)n(CC3CC3)c2n1 [Example 577, [(1~{R},2~{R},4~{S})-2-amino-7-azabicyclo [2.2.1]heptan-7-yl]-[3-cyclobutyl-2-[1-(cyclopropylmethyl)-6-ethylpyrrolo[2,3-b]pyridin-2-yl]-5-methoxyimidazo [1,2-a]pyridin-7-yl]methanone]",0.996
3,"CCc1ccc2cc(-c3nc4cc(C(=O)N5C[C@@]6(N)CC[C@@H]5C6)cc(OC)n4c3C)n(CC3CC3)c2n1 [Example 588, [(1~{R},4~{R})-4-amino-2-azabicyclo[2.2.1]heptan-2-yl]-[2-[1-(cyclopropylmethyl)-6-ethylpyrrolo[2,3-b]pyridin-2-yl]-5-methoxy-3-methylimidazo[1,2-a]pyridin-7-yl]methanone]",10.6
4,"COc1cc(C(=O)N2CCC[C@@H](N)C2)cc2nc(-c3cc4ccc(C(C)n5cc(N)cn5)nc4n3CC3CC3)c(C)n12 (stereo partly drawn) [Example 547, [(3~{R})-3-aminopiperidin-1-yl]-[2-[6-[1-(4-aminopyrazol-1-yl)ethyl]-1-(cyclopropylmethyl)pyrrolo[2,3-b]pyridin-2-yl]-5-methoxy-3-methylimidazo[1,2-a]pyridin-7-yl]methanone]",0.715
5,COc1cc(C(=O)N2CC[C@H]3OCCCN[C@H]3C2)cc2nc(-c3cc4ccc(N(C(F)F)S(C)(=O)=O)nc4n3CC3CC3)c(C)n12 [Example 359],0.42
6,COc1cc(C(=O)N2CC[C@@H]3CCN[C@@H]3C2)cc2nc(-c3cc4ccc(N(C(F)F)S(C)(=O)=O)nc4n3CC3CC3)c(C)n12 [Example 419],1.17
7,COc1ccccc1C(=O)N[C@H](C)c1ccc2cc(-c3nc4cc(C(=O)N5[C@H]6CC[C@@H]5[C@H](N)C6)cc(OC)n4c3C)n(CC3CC3)c2n1 [Example 17],0.348
8,"COc1cc(C(=O)N2CC[C@H]3OCCN[C@H]3C2)cc2nc(-c3cc4ccc(N(C(F)F)S(C)(=O)=O)nc4n3CC3CC3)c(C3CC3)n12 [Example 384, ~{N}-[2-[7-[(4~{a}~{S},8~{a}~{R})-2,3,4,4~{a},5,7,8,8~{a}-octahydropyrido[4,3-b][1,4]oxazine-6-carbonyl]-3-cyclopropyl-5-methoxyimidazo[1,2-a]pyridin-2-yl]-1-(cyclopropylmethyl)pyrrolo [2,3-b]pyridin-6-yl]-~{N}-(difluoromethyl) methanesulfonamide]",0.888
9,"COc1cc(C(=O)NC[C@@H]2CCCN2)cc2nc(-c3cc4ccc(N(C(F)F)S(C)(=O)=O)nc4n3CC3CC3)c(C)n12 [Example 303, 2-[1-(cyclopropylmethyl)-6-[difluoromethyl (methylsulfonyl)amino]pyrrolo[2,3-b]pyridin-2-yl]-5-methoxy-3-methyl-~{N}-[[(2~{S})-pyrrolidin-2-yl]methyl] imidazo[1,2-a] pyridine-7-carboxamide]",23.5
10,"CCc1cc2c(cc1F)cc(-c1nc3cc(C(=O)N4CCC[C@@H](N)C4)cc(OC)n3c1C)n2CC1CC1 [Example 589, [(3~{R})-3-aminopiperidin-1-yl]-[2-[1-(cyclopropylmethyl)-6-ethyl-5-fluoroindol-2-yl]-5-methoxy-3-methylimidazo[1,2-a]pyridin-7-yl]methanone]",2.68

# The next compounds have a lower IC50 than those just listed; values first:
row,IC50 [µM],SMILES
1,0.0317,"COc1cc(C(=O)N2[C@H]3CC[C@@H]2[C@H](N)C3)cc2nc(-c3cc4ccc([C@@H](C)NC(=O)C5(C)COC5)nc4n3CC3CC3)c(C3CC3)n12 [Example 109, ~{N}-[(1~{R})-1-[2-[7-[(1~{R},2~{R},4~{S})-2-amino-7-azabicyclo[2.2.1]heptane-7-carbonyl]-3-cyclopropyl-5-methoxyimidazo [1,2-a]pyridin-2-yl]-1-(cyclopropylmethyl)pyrrolo [2,3-b]pyridin-6-yl]ethyl]-3-methyloxetane-3-carboxamide]"
2,0.237,"COc1cc(C(=O)N2[C@H]3CC[C@@H]2[C@H](N)[C@H](OC)C3)cc2nc(-c3cc4ccc([C@@H](C)NC(=O)C56CC(F)(C5)C6)nc4n3CC3CC3)c(C)n12 [Example 183, ~{N}-[(1~{R})-1-[2-[7-[(1~{R},2~{S},3~{R}, 5~{S})-2-amino-3-methoxy-8-azabicyclo [3.2.1]octane-8-carbonyl]-5-methoxy-3-methylimidazo [1,2-a]pyridin-2-yl]-1-(cyclopropylmethyl)pyrrolo [2,3-b]pyridin-6-yl]ethyl]-3-fluorobicyclo[1.1.1]pentane-1-carboxamide]"
3,0.254,"COc1cc(C(=O)N2[C@H]3CC[C@@H]2[C@H](N)C3)cc2nc(-c3cc4ccc([C@@H](C)NC(=O)c5ccc(F)cc5F)nc4n3CC3CC3)c(C)n12 [Example 56, ~{N}-[(1~{R})-1-[2-[7-[(1~{R},2~{R}, 4~{S})-2-amino-7-azabicyclo[2.2.1]heptane-7-carbonyl]-5-methoxy-3-methylimidazo[1,2-a]pyridin-2-yl]-1-(cyclopropylmethyl)pyrrolo[2,3-b]pyridin-6-yl]ethyl]-2,4-difluorobenzamide]"
4,0.052,"COc1cc(C(=O)N2[C@H]3CC[C@@H]2[C@H](N)C3)cc2nc(-c3cc4ccc([C@@H](C)NC(=O)N5CC(OC(F)(F)F)C5)nc4n3CC3CC3)c(C)n12 [Example 202, ~{N}-[(1~{R})-1-[2-[7-[(1~{R},2~{R},4~{S})-2-amino-7-azabicyclo[2.2.1]heptane-7-carbonyl]-5-methoxy-3-methylimidazo [1,2-a]pyridin-2-yl]-1-(cyclopropylmethyl)pyrrolo [2,3-b]pyridin-6-yl]ethyl]-3-(trifluoromethoxy)azetidine-1-carboxamide]"
5,0.0831,"COc1cc(C(=O)N2[C@H]3CC[C@@H]2[C@H](N)C3)cc2nc(-c3cc4ccc(C5CCNC(=O)C5)nc4n3CC3CC3)c(C)n12 (stereo partly drawn) [Example 562, 4-[2-[7-[(1~{R},2~{R}, 4~{S})-2-amino-7-azabicyclo[2.2.1]heptane-7-carbonyl]-5-methoxy-3-methylimidazo[1,2-a]pyridin-2-yl]-1-(cyclopropylmethyl)pyrrolo[2,3-b]pyridin-6-yl]piperidin-2-one]"
6,0.058,"COc1cc(C(=O)N2[C@H]3CC[C@@H]2[C@H](N)C3)cc2nc(-c3cc4ccc([C@@H](C)NC(=O)c5cn(C)nc5Cl)nc4n3CC3CC3)c(C)n12 [Example 76, ~{N}-[(1~{R})-1-[2-[7-[(1~{R},2~{R},4~{S})-2-amino-7-azabicyclo[2.2.1]heptane-7-carbonyl]-5-methoxy-3-methylimidazo [1,2-a]pyridin-2-yl]-1-(cyclopropylmethyl)pyrrolo [2,3-b]pyridin-6-yl]ethyl]-3-chloro-1-methylpyrazole-4-carboxamide]"
7,0.077,"COc1cc(C(=O)N2[C@H]3CC[C@@H]2[C@H](N)C3)cc2nc(-c3cc4ccc([C@@H](C)NC(=O)C5CN(C(C)=O)C5)nc4n3CC3CC3)c(C)n12 [Example 149, 1-acetyl-~{N}-[(1~{R})-1-[2-[7-[(1~{R},2~{R},4~{S})-2-amino-7-azabicyclo [2.2.1]heptane-7-carbonyl]-5-methoxy-3-methylimidazo [1,2-a]pyridin-2-yl]-1-(cyclopropylmethyl)pyrrolo [2,3-b]pyridin-6-yl]ethyl] azetidine-3-carboxamide]"
8,0.258,"CCc1ccc2cc(-c3nc4cc(C(=O)N5[C@H]6CC[C@@H]5[C@H](N)C6)cc(OC)n4c3C)n(CC(F)F)c2n1 [Example 502, [(1~{R},2~{R},4~{S})-2-amino-7-azabicyclo [2.2.1]heptan-7-yl]-[2-[1-(2,2-difluoroethyl)-6-ethylpyrrolo[2,3-b]pyridin-2-yl]-5-methoxy-3-methylimidazo [1,2-a]pyridin-7-yl] methanone]"
9,0.0242,"COc1cc(C(=O)N2[C@H]3CC[C@@H]2[C@H](N)C3)cc2nc(-c3cc4ccc([C@@H](C)NC(=O)c5ccnc(C)c5)nc4n3CC3CC3)c(C)n12 [Example 47, ~{N}-[(1~{R})-1-[2-[7-[(1~{R},2~{R},4~{S})-2-amino-7-azabicyclo[2.2.1]heptane-7-carbonyl]-5-methoxy-3-methylimidazo [1,2-a]pyridin-2-yl]-1-(cyclopropylmethyl)pyrrolo[2,3-b]pyridin-6-yl]ethyl]-2-methylpyridine-4-carboxamide]"
10,0.246,"COc1cc(C(=O)N2[C@H]3CC[C@@H]2[C@H](N)C3)cc2nc(-c3cc4ccc(N5CCCC(C(C)C)S5(=O)=O)nc4n3CC3CC3)c(C)n12 (stereo partly drawn) [Example 452, [(1~{R},2~{R},4~{S})-2-amino-7-azabicyclo [2.2.1]heptan-7-yl]-[2-[1-(cyclopropylmethyl)-6-(1,1-dioxo-6-propan-2-ylthiazinan-2-yl)pyrrolo [2,3-b]pyridin-2-yl]-5-methoxy-3-methylimidazo [1,2-a]pyridin-7-yl]methanone]"
11,0.274,"COc1cc(C(=O)N2[C@H]3CC[C@@H]2[C@H](N)C3)cc2nc(-c3cc4ccc(C5CCN(C(=O)C(C)(C)C)C5)nc4n3CC3CC3)c(C)n12 (stereo partly drawn) [Example 530, 1-[3-[2-[7-[(1~{R},2~{R}, 4~{S})-2-amino-7-azabicyclo[2.2.1]heptane-7-carbonyl]-5-methoxy-3-methylimidazo[1,2-a]pyridin-2-yl]-1-(cyclopropylmethyl)pyrrolo [2,3-b]pyridin-6-yl]pyrrolidin-1-yl]-2,2-dimethylpropan-1-one]"
